Source: US12312346B2, “Pyridopyrimidine compounds and methods of their use” (Tufts Medical Center, Inc., priority 2018, dated 2025)
“Also recorded” adds a separate entry of the source.

How the values were obtained:
[1] = tested on: differentiated SVF cells (white adipocyte formation); experiment: Oil Red O staining of differentiated SVF cells with WAT inducers; assay type: cell-based; conditions: vs vehicle
Method: FIG. 8A is an image of Oil Red O staining of differentiated SVF cells treated with a vehicle or compound GD (5 μM) in the presence of white adipose tissue (WAT) inducers. Scale bar: 100 μM
FIG. 8C is an image of Oil Red O staining of differentiated SVF cells treated with a vehicle or compound GD (0.1 μM) in the presence of white adipose tissue (WAT) inducers. Scale bar: 400 μM for the top 2 images, and 100 μM for the bottom two images.
Beige cells are associated with protection against obesity and metabolic syndrome (WO 2017/161253). Accordingly, compound GD and related compounds of the invention can be used for treating obesity and related metabolic diseases.

[2] = tested on: phosphorylated pRB at SER-780 in MDA-MB231 cells; experiment: Immunoblot of phosphorylated pRB (SER-780) and PI staining, MDA-MB231; assay type: cell-based
Method: FIG. 5A is an image of a representative immunoblot showing the levels of phosphorylated pRB at SER-780 in MDA-MB231 and HPBALL cells following treatment of these cells with a vehicle, PD, or compound GD for 24 hours. Tubulin was used as loading control.
(§1) Table 2: Experimental Procedures: sensitivity to CDK6 kinase activity inhibition was tested by incubating different cell lines in the presence of CDK6 inhibitor GD007/PBS for either 24 hours for detecting the status of pRB-780 phosphorylation, or 5 days for determining the effect of GD007 on cell proliferation. (1) By immunoblotting (WB), we will detect phospho-pRB-S^780, one of the substrates of CDK6 kinase; (2) By using FACS analysis, we will stain treated cells with Propidium Iodide (PI), a commonly used fluorescent intercalator, to measure the subpopulation of cell cycle to reveal any impact of CDK6 inhibition on cell proliferation; (3) cell numbers will be counted using hemocytometer.

Prostate Cancer: PC-3 = experiment: pRB-780 immunoblot, PC-3; assay type: cell-based; conditions: WB: P-RB-780
Method: as §1

Breast Cancer: MCF-7 = experiment: PI staining and pRB-780 immunoblot, MCF-7; assay type: cell-based; conditions: PI staining and WB: P-RB-780
Method: as §1

[3] = tested on: human leukemia cell line HPBALL (with Notch1 mutations); experiment: Cell cycle (PI staining, S-G2-M cells) and cell number, HPBALL; assay type: cell-based
Method: FIG. 1A is a series of charts showing representative cell cycle profiles of human leukemia cell line HPBALL (with Notch1 mutations) treated with a vehicle (V) (for ribociclib (LEE) or compound GD) or LEE or compound GD for 6 days at 1, 5, 10, and 20 μM.
FIG. 1B is a histogram summarizing the cell cycle distribution of the HPBALL cell line treated with compound GD, as described for FIG. 1A. Data shown are mean±S.D. (n=6); *P<0.05 vs its vehicle controls, t-test.
FIG. 1C is a histogram summarizing the cell cycle distribution of the HPBALL cell line treated with ribociclib (LEE), as described for FIG. 1A. Data shown are mean±S.D. (n=6); *P<0.05 vs its vehicle controls, t-test.
FIG. 1D is a chart the percentage of S-G2-M cells in FIGS. 1B and 1C. IC50 is the concentration of an inhibitor where the response (here is the inhibition of proliferation) is reduced by half.
FIG. 1E is a bar graph summarizing the cell numbers of HPBALL cells treated with either GD with different doses or LEE (20 μM) for 6 days. Data shown are mean±S.D. (n=6); *P<0.05 vs vehicles (0) control, t-test.
HCl salt of 6-acetyl-5-methyl-2-((4-(piperazin-1-ylmethyl)thiazol-2-yl)amino)pyrido[2,3-d]pyrimidin-7(8H)-one (Compound GD) prepared in Example 1 was examined for its inhibitory activity in cancer cell lines and WT and CDK6^−/− mouse embryonic fibroblasts (MEFs) and stromal vascular fractions (SVFs). […]
as §1

[4] = tested on: A549 (lung cancer cells) xenograft tumors; experiment: A549 xenograft mouse model; assay type: in vivo; conditions: female Nod/Scid mice
Method: A549 cells (3×10^5/each side) were inoculated ectopically in female Nod/Scid mice. One week after inoculation, tumor bearing mice were treated with GD at 200 mg/kg/day or PBS by oral gavage for 21 days. Data shown are mean±S.D. (n=8 for each group), *p<0.05, t-test, GD vs. PBS.
FIG. 10B is a graph showing body weight of two groups of mice during the observation time. Body weights shown are mean±S.D. (n=4 for each group).
We examined the therapeutic efficacy of GD against A549 (lung cancer cells) xenograft tumors. A549 cells (3×10^5 per side in 100 μl of 50% Matrigel) were inoculated ectopically in female Nod/Scid mice on both sides. When tumor sizes reached ˜50 mm^3, animals were divided into 2 groups (n=4 mice per group), and treated with PBS or GD at dose of 200 mg/kg/day over a 21-day period (Kwapisz, supra).
Tumor sizes were measured with standard calipers every day and tumor volumes were calculated using standard methods (caliper measurements are commonly collected along the longest two dimensions of the tumor x/y plane only, with the z-axis dimension assumed to be the same as the shortest dimension) (Tomayko et al., Cancer Chemother. Pharmacol. 24:148-154, 1989). Weekly body weights were measured at designed times. At the end of the experiments, all of the tumors were isolated from the mice and weighed.

[5] = tested on: phosphorylated pRB at SER-780 in HPAC-1 cells; experiment: Immunoblot of phosphorylated pRB (SER-780) and PI staining, HPAC-1; assay type: cell-based
Method: FIG. 5D is an image of a representative immunoblot showing the levels of phosphorylated pRB at SER-780 in HPAC-1 cells following treatment of these cells with a vehicle, PD, or compound GD for 24 hours. Tubulin was used as loading control.
as §1

Q: Which results are given for `CC(=O)c1c(C)c2cnc(Nc3nc(CN4CCNCC4)cs3)nc2[nH]c1=O` [Compound GD, 6-acetyl-5-methyl-2-((4-(piperazin-1-ylmethyl)thiazol-2-yl)amino)pyrido[2,3-d]pyrimidin-7(8H)-one]?
A: white adipocyte formation ([1]; GD 0.1 μM, FIG. 8C): inhibited white adipocyte formation; white adipocyte formation ([1]; GD 5 μM, FIG. 8A): inhibited white adipocyte formation; Compound GD Efficacy ([2]; MDA-MB231, PI staining and WB: P-RB-780): Efficacious; pRB phosphorylation ([2]; breast cancer cell line MDA-MB231, 24 hours): inhibits pRB phosphorylation; Compound GD Efficacy (Prostate Cancer: PC-3): No; Compound GD Efficacy (Breast Cancer: MCF-7): No; IC50 ([3]; Homo sapiens, 144 h, HPBALL, 6 days, read-out: IC50 (inhibition of proliferation, percentage of S-G2-M cells)): ~4 µM; Compound GD Efficacy ([3]; Leukemic cells: HPBALL, PI Staining, and cell number counting): Efficacious; tumor weights vs PBS ([4]; 200 mg/kg/day for 21 days, end of experiment, FIGS. 10D-10E): reduced; also recorded: decreased tumor weights; tumor volumes (xenograft tumor growth) vs PBS ([4]; 200 mg/kg/day oral gavage for 21 days, FIG. 10A): reduced; also recorded: suppressed xenograft tumor growth; Compound GD Efficacy ([5]; Pancreas Cancer: HPAC, WB and PI staining): Efficacious; pRB phosphorylation ([5]; pancreas adenocarcinoma (HPAC-1), 24 hours): inhibits pRB phosphorylation
